16 molecules from patent US4521422A, “Aryl and heteroaryl[7-(aryl and heteroaryl)pyrazolo[1,5-a]pyrimidin-3-yl]methanones” (American Cyanamid Company, priority 1984, dated 1985) can be followed below.

The test system of assay [1] is Ability of Rats to Remain on an Inclined Screen. As to the kind of experiment: Effect on ability of rats to remain on an inclined screen. The class given is in vivo. As to conditions: Rattus norvegicus, 65 min; dose necessary to cause 50% of animals to fall off; oral; 60° screen, 65 min after dosing. The method, then: The first test measures the effect of representative compounds on the ability of rats to remain on an inclined screen. Groups of at least 6 rats were treated orally with graded doses of test compounds or vehicle and placed on a wire mesh screen (inclined at an angle of 60° from a horizontal level) 65 minutes later. The number of rats falling off the screen within 30 minutes was recorded. The ED50 (dose necessary to cause 50% of the animals tested to fall off) was calculated according to the linear arc-sine transformation method of Finney, D. J. Statistical Methods in Biological Assay, 2nd Ed., Hafner, N. Y., 1964, pp. 454 ff. Compounds were dissolved or suspended in a 2% aqueous starch suspension containing 5% polyethylene glycol 400 and a drop of polysorbate 80, and administered in a constant volume of 5 ml/kg.

Assay [2] concerns Clonic Seizures Caused by Pentylenetetrazole in Rats. As to the kind of experiment: Protection against clonic seizures caused by pentylenetetrazole in rats. The class given is in vivo. As to conditions: Rattus norvegicus, oral or i.p., read-out: % of Rats Protected; for responders at 25 mg/kg: pentylenetetrazole 23 mg/kg i.v. at 30 or 60 min. An outline of the steps: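 Rats (at least 4 per group) given single or graded oral or intraperitoneal doses in starch/PEG/Polysorbate 80 vehicle. After 30 or 60 min, pentylenetetrazole 23 mg/kg i.v. was given, a dose expected to induce clonic seizures in 99% of unprotected rats. Protection from convulsions was scored.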

The test system of assay [3] is Nonconditioned Passive Avoidance in Rats. As to the kind of experiment: Nonconditioned passive avoidance (conflict) test in rats. Format: in vivo, rat (Wistar). The arrangement: key: Active: considered active if the number of shocks received by the test group is significantly higher than the control group by the Mann-Witney U test. The note with it: oral or i.p. The protocol: Another test which has been used to assess anti-anxiety effects is a nonconditioned passive avoidance procedure described by [J. R. Vogel, B. Beer and D. E. Clody, "A Simple and Reliable Conflict Procedure for Testing Anti-Anxiety Agents", Psychopharmacologia, 21, 1-7 (1971)]. A conflict situation is induced in rats by a modification of this method.
Groups of 6 naive, Wistar strain rats, weighing 200-240 g each were deprived of water for 48 hours and food for 24 hours. The test compounds were administered in single or graded, oral or intraperitoneal doses, suspended in a 2% starch vehicle containing 0.5% v/v polyethylene glycol and one drop of polysorbate 80. Control animals received the vehicle alone. At 30 to 60 minutes each rat was placed in an individual plexiglass chamber. Water was available ad libitum from a tap located in the rear of the chamber. A 0.7 milliampere DC shocking current was established between the stainless steel grid floor and the tap. After 20 licks of non-shocked drinking, a shock was delivered for 2 seconds and then further shocks were delivered on a ratio of one shock for 2 seconds for every 20 licks. This was continued for a total of 3 minutes. The number of shocks taken by each rat during the 3 minute interval was recorded and compared to a control group. […]

The subject of assay [4] is Brain-Specific Receptors of Rats. Briefly: Inhibition of the binding of 3H-benzodiazepine to brain-specific receptors of rats. The arrangement: species or system rat (Wistar). The note with it: 3H-diazepam 1.5 nM or 3H-flunitrazepam 1.0 nM; rat cortex P2 fraction; test concentration not given.
Assay [5] relates to Ethanol Induced Narcosis in Rats. Briefly: Effects on the duration of ethanol induced narcosis in rats. Format: in vivo. As to conditions: Rattus norvegicus; lowest dose causing significant (p≤0.05) increase in duration of narcosis; oral, 60 min before 3.2 g/kg i.p. ethanol; read-out: MED. The protocol: The sedative-hypnotic properties of the novel compounds of the instant invention have been established by their effect on the duration of ethanol induced narcosis in rats as a measurement of sedation. Groups of at least 8 rats were administered graded oral doses of the test compounds or vehicle 60 minutes prior to intraperitoneal treatment with 3.2 g/kg ethanol. Rats were then observed continuously for 180 minutes for the incidence and duration of ethanol induced narcosis. […] The duration of narcosis was the total time the rat remained in a supine position. The MED [lowest dose necessary to cause a significant (p≤0.05, two-tailed Student's t test) increase in the duration of ethanol induced narcosis in rats] of representative compounds of this invention are shown in Table IV. Test compounds were dissolved or suspended in a 2% aqueous starch suspension containing 5% polyethyleneglycol 400 and a drop of Tween®80; ethanol (95%) was adjusted to final concentration (V:V) with 0.85% saline. All treatments were administered in a constant volume of 5 ml/kg.

For assay [6], the system named is Locomotor Activity in Rats. As to the kind of experiment: Effects on locomotor activity in rats. Format: in vivo. As to conditions: Rattus norvegicus, 1 h; dose causing 50% decrease in mean activity counts vs vehicle; oral, 60 min; read-out: MDD50. The protocol: Groups of 6 rats were treated orally with vehicle (5 ml/kg) or graded doses of the test compounds. Sixty minutes later, individual rats were placed in Actophotometers and locomotor activity was measured for 5 minutes after a brief (30 sec.) habituation period. Motor Activity Counts (number of crossings of the photo cells) were recorded for each rat, and mean activity counts were calculated for each treatment group. The dose causing a 50% decrease in mean activity counts compared with the vehicle group (MDD50) was calculated from a linear regression equation.

Broadly, the % Inhibition is the percentage by which the read-out fell short of the control. With `O=C(c1ccco1)c1cnn2c(-c3cccnc3)ccnc12` [2-Furanyl[7-(3-pyridinyl)pyrazolo[1,5-a]pyrimidin-3-yl]methanone], the ED50 was 167 mg/kg in assay [1] and 500 mg/kg in assay [6]. Moreover, in assay [2], the responders at 25 mg/kg is 100%. Besides, in assay [3] (dose 25.0 mg/kg), the “Result (nonconditioned passive avoidance)” value (from here on “Result”) is listed as “Active”. The “% Inhibition” value in assay [4] was 72%. For the same molecule, the minimal effective dose in assay [5] amounted to 32 mg/kg.

On to `O=C(c1ccco1)c1cnn2c(-c3cccc(C(F)(F)F)c3)ccnc12` [2-furanyl[7-[3-(trifluoromethyl)phenyl]pyrazolo[1,5-a]pyrimidin-3-yl]methanone], for which the responders at 25 mg/kg in assay [2] was 100%. The “Result” value in assay [3] (dose 25.0 mg/kg) is on record as “Active”. Also, the “% Inhibition” value in assay [4] stood at 98%. In addition, the minimal effective dose in assay [5] worked out at 32 mg/kg.

Consider `O=C(c1ccccn1)c1cnn2c(-c3ccncc3)ccnc12` [2-pyridinyl[7-(4-pyridinyl)pyrazolo[1,5-a]pyrimidin-3-yl]methanone], for which, in assay [2], the responders at 25 mg/kg is 100%. Besides, the “Result” value in assay [3] (dose 25.0 mg/kg) is listed as “Active”. The “% Inhibition” value in assay [4] is recorded as 29%. Besides, the ED50 in assay [6] was found to be 101 mg/kg.

For the molecule `O=C(c1ccccn1)c1cnn2c(-c3cccc(C(F)(F)F)c3)ccnc12` [2-pyridinyl[7-[3-(trifluoromethyl)phenyl]pyrazolo[1,5-a]pyrimidin-3-yl]methanone], the values for the ED50 in assay [1] and in assay [6] were 6.9 mg/kg and 7 mg/kg, respectively. Also, in assay [2], the responders at 25 mg/kg is 100%. The “Result” value in assay [3] (dose 25.0 mg/kg) is listed as “Active”. For the same molecule, the “% Inhibition” value in assay [4] is 93%.

For the molecule `O=C(c1ccccc1Cl)c1cnn2c(-c3cccnc3)ccnc12` [(2-chlorophenyl)[7-(3-pyridinyl)pyrazolo[1,5-a]pyrimidin-3-yl]methanone], in assay [2], the responders at 25 mg/kg was 100%. Moreover, the “Result” value in assay [3] (dose 25.0 mg/kg) is given as “Active”. Besides, in assay [4], the “% Inhibition” value came to 24%. Moreover, in assay [5], the minimal effective dose amounted to 4 mg/kg.

`O=C(c1ccc(F)cc1)c1cnn2c(-c3ccncc3)ccnc12` [(4-Fluorophenyl)[7-(4-pyridinyl)pyrazolo[1,5-a]pyrimidin-3-yl]methanone]: the results for the ED50 in assay [1] and in assay [6] were 98 mg/kg and 48.9 mg/kg, respectively. The responders at 25 mg/kg in assay [2] stood at 100%. In assay [3] (dose 25.0 mg/kg), the “Result” value is on record as “Active”. In addition, in assay [5], the minimal effective dose was 6 mg/kg.

Take `COc1ccc(C(=O)c2cnn3c(-c4cccnc4)ccnc23)cc1` [(4-Methoxyphenyl)[7-(3-pyridinyl)pyrazolo[1,5-a]pyrimidin-3-yl]methanone]: the ED50 in assay [1] came out at 11.9 mg/kg; in assay [6] it was 10.5 mg/kg. For the same molecule, in assay [2], the responders at 25 mg/kg is 100%. For the same molecule, the “Result” value in assay [3] (dose 12.5 mg/kg) is given as “Active”.

As to `Cc1ccc(C(=O)c2cnn3c(-c4cccnc4)ccnc23)cc1` [(4-Methylphenyl)[7-(3-pyridinyl)pyrazolo[1,5-a]pyrimidin-3-yl]methanone], the ED50 was found to be 11.1 mg/kg in assay [1] and 13.2 mg/kg in assay [6]. Moreover, the responders at 25 mg/kg in assay [2] was determined as 100%. Besides, the “Result” value in assay [3] (dose 25.0 mg/kg) is reported as “Active”. Also, the “% Inhibition” value in assay [4] is on record as 56%.

`O=C(c1ccc(F)cc1)c1cnn2c(-c3cccc(C(F)(F)F)c3)ccnc12` [(4-fluorophenyl)[7-[3-(trifluoromethyl)phenyl]pyrazolo[1,5-a]pyrimidin-3-yl]methanone]: in assay [2] (dose 12.5 mg/kg, pentylenetetrazole 23 mg/kg i.v.), the responders at 12.5 mg/kg was 38%. Besides, the “Result” value in assay [3] (dose 25.0 mg/kg) is given as “Active”. Also, in assay [4], the “% Inhibition” value is 50%.

For the molecule `O=C(c1ccccc1)c1cnn2c(-c3cccnc3)ccnc12` [Phenyl[7-(3-pyridinyl)pyrazolo[1,5-a]pyrimidin-3-yl]methanone], the figures for the ED50 in assay [1] and in assay [6] were 68.5 mg/kg and 51.4 mg/kg, respectively. In assay [2], the responders at 25 mg/kg was determined as 100%. Besides, the “Result” value in assay [3] (dose 25.0 mg/kg) is “Active”. For the same molecule, the “% Inhibition” value in assay [4] is 45%. In addition, the minimal effective dose in assay [5] is 16 mg/kg.

Regarding `O=C(c1ccccc1)c1cnn2c(-c3cc[n+]([O-])cc3)ccnc12` [Phenyl[7-(4-pyridinyl)pyrazolo[1,5-a]pyrimidin-3-yl]methanone, pyridine-1-oxide], the responders at 25 mg/kg in assay [2] is 100%. In addition, in assay [3] (dose 25.0 mg/kg), the “Result” value is listed as “Active”. Besides, in assay [4], the “% Inhibition” value was 39%.

For `Cc1cnc2c(C(=O)c3ccccc3)cnn2c1-c1ccncc1` [[6-methyl-7-(4-pyridinyl)pyrazolo[1,5-a]pyrimidin-3-yl]phenyl-methanone], the responders at 25 mg/kg in assay [2] turned out to be 100%. The “Result” value in assay [3] (dose 25.0 mg/kg) was “Active”. The “% Inhibition” value in assay [4] is 56%.

In the case of `O=C(c1ccccn1)c1cnn2c(-c3ccc(F)cc3)ccnc12` [[7-(4-fluorophenyl)pyrazolo[1,5-a]pyrimidin-3-yl]-2-pyridinyl-methanone], the responders at 25 mg/kg in assay [2] turned out to be 50%. In assay [3] (dose 25.0 mg/kg), the “Result” value is on record as “Active”. The “% Inhibition” value in assay [4] was 64%.

As to `O=C(c1ccccc1)c1cnn2c(-c3ccc(F)cc3)ccnc12` [[7-(4-fluorophenyl)pyrazolo[1,5-a]pyrimidin-3-yl]phenyl-methanone], the responders at 25 mg/kg in assay [2] stood at 100%. Besides, the “Result” value in assay [3] (dose 25.0 mg/kg) is listed as “Active”. Further, the “% Inhibition” value in assay [4] is 18%.

For the molecule `O=C(c1ccccc1)c1cnn2c(-c3ccncc3)ccnc12` [phenyl[7-(4-pyridinyl)pyrazolo[1,5-a]pyrimidin-3-yl]methanone], the ED50 stood at 9.9 mg/kg in assay [1] and 21.2 mg/kg in assay [6]. In addition, the responders at 25 mg/kg in assay [2] amounted to 100%. Besides, the “Result” value in assay [3] (dose 25.0 mg/kg) is reported as “Active”. Also, in assay [5], the minimal effective dose came out at 8 mg/kg.

`O=C(c1ccccc1)c1cnn2c(-c3cccc(C(F)(F)F)c3)ccnc12` [phenyl[7-[3-(trifluoromethyl)phenyl]pyrazolo[1,5-a]pyrimidin-3-yl]methanone]: the ED50 in assay [1] and in assay [6] was 5.5 mg/kg each time. For the same molecule, the responders at 25 mg/kg in assay [2] was determined as 100%. The “Result” value in assay [3] (dose 25.0 mg/kg) was “Active”. For the same molecule, the “% Inhibition” value in assay [4] is 93%.
